# Results published in PMC4269550, “Lead Optimization of a Pyrazole Sulfonamide Series of Trypanosoma bruceiN-Myristoyltransferase Inhibitors: Identification and Evaluation of CNS Penetrant Compounds as Potential Treatments for Stage 2 Human African Trypanosomiasis” (Journal of Medicinal Chemistry, 2014).
# Several values for one entry are separate records, joined by “and”; a condition that tells them apart may be missing. Equal values may be shown once. Read-outs that look alike come from different tables or passages of the source.
# Key:
# [1] = Mouse pharmacokinetics; assay type: in vivo; conditions: for oral exposure in mouse: words; for Cmax: oral dose 50mg/kg
# Procedure: Test compound was dosed as a bolus solution intravenously at 3 mg free base/kg (dose volume, 5 mL/kg; dose vehicle, saline or 5% DMSO; 40% PEG400; 55% saline) to female NMRI mice (n = 3) or dosed orally by gavage as a solution at 10 and/or 50 mg free base/kg (dose volume, 5 mL/kg; dose vehicle, 5% DMSO; 95% distilled water or 5% DMSO; 40% PEG400; 55% distilled water) to female NMRI mice (n = 3/dose level). Female NMRI mice were chosen as these represent the sex and strain used for the stage 1 and stage 2 HAT efficacy models. Blood samples were taken from each mouse at 2 (IV only), 5 (IV only), 15, and 30 min, 1, 2, 4, 6, 8, and 24 (po only) hours postdose and mixed with two volumes of distilled water. After suitable sample preparation, the concentration of test compound in blood was determined by UPLC-MS/MS using a Quattro Premier XE (Waters, USA). Pharmacokinetic parameters were derived from the mean blood concentration time curve using PKsolutions software v 2.0 (Summit Research Services, USA).
# [2] = tested on: T. b. rhodesiense STIB900; test: Stage 1 HAT mouse efficacy model, T. b. rhodesiense STIB900; assay type: in vivo; conditions: b.i.d. po for 4 days
# [3] = Maximum tolerated dose in mice; conditions: mouse, in vivo
# [4] = Intrinsic clearance (Cli), mouse liver microsomes; assay type: in vitro ADME; conditions: for Cli (mouse): mouse liver microsomes; for Cli: mouse microsomes
# [5] = In vitro metabolite identification with mouse microsomes; assay type: in vitro ADME; conditions: for % Parent remaining (t = 15 min): 5µM, 15 min at 37°C, mouse liver microsomes; for sulfonamide N-dealkylation on incubation with mouse microsomes: words
# [6] = Rat hepatic portal vein study; assay type: in vivo; conditions: male Sprague–Dawley rat, 3 mg/kg orally
# Procedure: aIC50 values are shown as mean values of two or more determinations. bCompounds with Hill slopes […]
# Rat hepatic portal vein study protocol.
# 10mL/kg; Dose vehicle: 5% DMSO; 40% PEG400; 55% distilled water) to male Sprague-Dawley rats (n=7). A single rat was placed under terminal anaesthesia with isofluorane at 15 and 30 minutes, 1, 2, 4, 6 and 8 hours post-dose and a blood sample taken from the hepatic portal vein and the heart, each mixed with two volumes of distilled water. After suitable sample preparation, the concentration of compound 33 in all blood samples was determined by UPLC/MS/MS using a Quattro Premier XE (Waters, USA). The hepatic portal vein and cardiac blood concentration time profile is presented in Figure S2. Pharmacokinetic parameters were derived from the blood concentration time profiles using PKsolutions software v 2.0 (Summit Research Services, USA).
# [7] = in vitro; assay type: cell-based, human; conditions: human; read-out: MRC-5 EC50
# [8] = tested on: T. b. brucei, BSF427, VSG118; test: Cell viability assay, trypanosome; assay type: cell-based; conditions: for ~EC99: T. brucei
# [9] = tested on: T. b. brucei S427; test: Stage 1 HAT mouse efficacy model, T. b. brucei S427; assay type: in vivo; conditions: for Activity in stage 1 mouse model: T. b. brucei S427, 50 mg/kg b.i.d. po for 4 days
# [10] = tested on: T. b. brucei GVR35; assay type: in vivo; conditions: for toxicity in infected mice in stage 2 model: dosed at the MTD b.i.d. po for 5 days, mice affected
# Description: NMRI mice used in the experiment were purchased from Harlan, UK. Mice were maintained under standard temperature/lighting conditions and given food and water ad libitum. The trypanosomes used in this study were of the cloned stabilate T. b. brucei GVR35, originally derived from trypanosomes isolated from a wildebeest in the Serengeti in 1966.[31] By 13 days postinfection, parasites entered the CNS.[32] If treatment is delayed until 21 days after infection, successful cure is therefore dependent on the ability of the compound to penetrate through the blood–brain barrier.[33] This model is widely used to evaluate the efficacy of new compounds for treatment against stage 2 HAT.[34]
# Cryopreserved T. b. brucei GVR35 trypomastigotes were diluted to ∼5 × 10^4 cells/mL in 20 mM Hanks Balanced Salt Solution with glucose, and 0.2 mL of that dilution was used for infection (∼1 × 10^4 cells/mL per animal). All animals in the groups were intraperitoneally infected (ip) on day 0. After infection, parasitaemia was monitored by examination of tail blood smears. On day 21, post infection animals were randomly allocated to five mice per group. Infected animals were dosed with one of the following: diaminazene diaceturate (ip), 40 mg/kg once only as a HAT stage 1 control (early stage tyrypanocide to clear the parasites in the systemic circulation and in tissues other than CNS); Melasoprol (ip), 10 mg/kg once daily for 5 days as a positive control for HAT stage 2; […]. One group of five mice was an untreated control group. The dose solutions were prepared daily, using 5% DMSO:40% PEG400:55% Milli-Q water for compound (i.e., 40) and 10% DMSO:90% peanut oil for control drugs. To measure the response to treatment, parasitaemia was monitored twice per week until day 50. After day 50, the mice were checked only once per week until day 180 post treatment. Mice surviving to the end of experiment and blood smear aparasitaemic were considered cured.
# [11] = Dose calculations for in vivo efficacy studies (brain concentration, brain free fraction); conditions: for oral dose needed to deliver stage 2 cures (Dose required): b.i.d., calculated to keep brain free concentration above T. brucei EC99
# Procedure: isofluorane. A blood sample was taken by cardiac puncture into two volumes of distilled water and the brain removed. After suitable sample preparation, the concentration of 1 in blood and brain was determined by UPLC/MS/MS using a Quattro Premier XE (Waters, USA). For each rat, the concentration in brain (ng/g) was divided by the concentration in blood (ng/mL) to give a brain:blood (B:B) ratio. The mean value obtained was quoted. A higher B:B ratio in animals pre-treated with GF120918 is indicative of a Pgp substrate.
# Dose calculations for in vivo efficacy studies.
# Property Compound 40 Compound 46 Compound 42
# Oral Dose 50mg/kg 50mg/kg 50mg/kg
# [12] = tested on: T. b. brucei GVR35; test: Acute mouse model of T. b. brucei GVR35; assay type: in vivo
# [13] = Mouse brain penetration; assay type: in vivo; conditions: female, NMRI, brain and blood, intravenous, 2 mg free base/kg, read-out: B:B (brain:blood ratio in mouse)
# [14] = molecular target: T1, TbNMT (Trypanosoma brucei brucei, UniProt Q388H8); test: NMT enzyme inhibition scintillation proximity assay (TbNMT); assay type: biochemical, T. brucei; conditions: mean of two or more determinations; read-out: TbNMT IC50
# T1 sequence (Q388H8 1-446): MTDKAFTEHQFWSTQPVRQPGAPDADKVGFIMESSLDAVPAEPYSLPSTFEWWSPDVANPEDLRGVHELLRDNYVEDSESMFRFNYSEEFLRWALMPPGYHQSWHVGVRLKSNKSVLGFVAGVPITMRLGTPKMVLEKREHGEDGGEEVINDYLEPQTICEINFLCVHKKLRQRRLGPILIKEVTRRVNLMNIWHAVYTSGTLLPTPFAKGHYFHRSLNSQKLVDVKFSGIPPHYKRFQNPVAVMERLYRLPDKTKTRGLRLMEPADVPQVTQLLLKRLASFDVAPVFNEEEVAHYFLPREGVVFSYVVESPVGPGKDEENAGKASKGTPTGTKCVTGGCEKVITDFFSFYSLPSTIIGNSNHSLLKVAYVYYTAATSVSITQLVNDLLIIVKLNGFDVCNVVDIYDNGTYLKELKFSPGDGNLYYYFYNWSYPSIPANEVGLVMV
# [15] = tested on: HsNMT; assay type: biochemical, human
# [16] = tested on: MRC5, human lung fibroblast cells; test: in vitro; assay type: cell-based
# [17] = female, NMRI, whole blood, mouse
structure (smiles),measurement,setting,value
Cc1c(NS(=O)(=O)c2c(Cl)cc(-c3ccnc(N4CCNCC4)c3)cc2Cl)c(CC(C)C)nn1C [compound 6],AUC(0-t),"[1]; female, NMRI, whole blood, mouse, 10 mg/kg po, read-out: AUC0–8 (converted)",56700 ng·h/mL
same,"stage 1 HAT minimal curative dose, T. b. rhodesiense STIB900",[2],6 mg/kg
same,MTD,[3]; po,20 mg/kg
Cc1nn(C)c(C)c1N(C)S(=O)(=O)c1c(Cl)cc(CCCN2CCN(C)CC2)cc1Cl [compound 33],Cli (mouse),[4],7.4 mL min^–1 g^–1
same,Cli,[4],7.4 mL/min/g
same,% Parent remaining (t = 15 min),[5],6%
same,sulfonamide N-dealkylation on incubation with mouse microsomes,[5],N-dealkylated sulfonamide as the predominant metabolite
same,hepatic extraction of the parent,[6],almost total hepatic extraction
CCN(c1c(C)nn(C)c1C)S(=O)(=O)c1c(Cl)cc(CCCN2CCN(C)CC2)cc1Cl [compound 34],Cli (mouse),[4],3.1 mL min^–1 g^–1
same,Cli,[4],3.1 mL/min/g
same,oral exposure in mouse,[1],poor oral exposure
same,% Parent remaining (t = 15 min),[5],37%
same,sulfonamide N-dealkylation on incubation with mouse microsomes,[5],N-dealkylated sulfonamide as the predominant metabolite
Cc1nn(C)c(C)c1N(C)[S+](=O)([O-])c1c(Cl)cc(CCCC2CCN(C)CC2)cc1Cl [compound 37],EC50,[7],1100 nM
same,Cli (mouse),[4],7.3 mL min^–1 g^–1
same,Cli,[4],7.3 mL/min/g
same,% Parent remaining (t = 15 min),[5],25%
same,sulfonamide N-dealkylation on incubation with mouse microsomes,[5],N-dealkylated sulfonamide as the predominant metabolite
CCN(c1c(C)nn(C)c1C)[S+](=O)([O-])c1c(Cl)cc(CCCC2CCN(C)CC2)cc1Cl [compound 39],EC50,[7],2200 nM
same,Cli (mouse),[4],12 mL min^–1 g^–1
same,% Parent remaining (t = 15 min),[5],52%
same,sulfonamide N-dealkylation on incubation with mouse microsomes,[5],N-dealkylated sulfonamide as the predominant metabolite
"Cc1nn(C)c(C)c1N(C(F)F)S(=O)(=O)c1c(Cl)cc(CCCC2CCN(C)CC2)cc1Cl [compound 40, 2,6-Dichloro-N-(difluoromethyl)-4-(3-(1-methylpiperidin-4-yl)propyl)-N-(1,3,5-trimethyl-1H-pyrazol-4-yl)benzenesulfonamide]",~EC99,[8],[…]
same,Cmax,[1]; [17],661 ng/mL
same,oral exposure in mouse,[1],good oral exposure
same,Activity in stage 1 mouse model,[9],fully curative
same,toxicity in infected mice in stage 2 model,[10],1/5
same,efficacy in stage 2 model (mice cured),[10]; the two 100 mg/kg extended dosing schedules (8 days; 3 x 3 days pulsed),1/5
same,efficacy in a stage 2 (CNS) mouse model of HAT,[10]; words,partial efficacy
same,% Parent remaining (t = 15 min),[5],67%
same,sulfonamide N-dealkylation on incubation with mouse microsomes,[5],did not undergo sulfonamide N-dealkylation
same,oral dose needed to deliver stage 2 cures (Dose required),[11],20 mg/kg
same,fraction unbound,"[11]; mouse, in vivo",0.019
same,Conc in brain,[11]; oral dose 50mg/kg,1031 ng/g
same,Free brain conc,[11]; oral dose 50mg/kg,19.6 ng/g
same,MTD at 1 day,[3]; po,100 mg/kg
Cc1nn(C)c(C)c1N(CC(F)(F)F)[S+](=O)([O-])c1c(Cl)cc(CCCC2CCN(C)CC2)cc1Cl [compound 42],~EC99,[8],~56 nM and ~31 ng/mL
same,Cli (mouse),[4],1.1 mL min^–1 g^–1
same,Cli,[4],1.1 mL/min/g
same,Cmax,[1]; [17],876 ng/mL
same,Activity in stage 1 mouse model,[9],fully curative
same,cures in stage 2 model,"[10]; T. b. brucei GVR35, 150 mg/kg b.i.d. po for 5 days",none of the mice were cured
same,toxicity in infected mice in stage 2 model,[10],well tolerated
same,concentration at 8 h,"[11]; NMRI, mouse, in vivo, oral dose 50mg/kg, read-out: Free brain conc at 8 hours post-dose",6.2 ng/g
same,oral dose needed to deliver stage 2 cures (Dose required),[11],250 mg/kg
same,fraction unbound,"[11]; mouse, in vivo",0.032
same,Conc in brain,[11]; oral dose 50mg/kg,569 ng/g
same,Free brain conc,[11]; oral dose 50mg/kg,18.2 ng/g
same,MTD at 1 day,[3],> 200 mg/kg
Cc1nn(C)c(C)c1N(C(F)F)S(=O)(=O)c1c(Cl)cc(CCCCC2CCN(C)CC2)cc1Cl [compound 46],~EC99,[8],~2 nM and ~1.1 ng/mL
same,Cmax,[1]; [17],708 ng/mL
same,"stage 1 HAT minimal curative dose, T. b. brucei S427","[9]; b.i.d. po, mouse",6 mg/kg
same,toxicity in infected mice in stage 2 model,[10],2/5
same,toxicity in stage 2 model,[10]; extended 50 mg/kg dose regimen,significant toxicity
same,cures in stage 2 model,"[10]; extended regimens: 25 mg/kg b.i.d. for 10 days, 50 mg/kg b.i.d. po for 8 days",no cures
same,oral dose needed to deliver stage 2 cures (Dose required),[11],15 mg/kg
same,fraction unbound,"[11]; mouse, in vivo",0.01
same,Conc in brain,[11]; oral dose 50mg/kg,935 ng/g
same,Free brain conc,[11]; oral dose 50mg/kg,9.4 ng/g
same,"minimum curative dose, acute model of T. b. brucei GVR35",[12]; b.i.d. po for 4 days,25 mg/kg
same,"reduction in efficacy, T. b. brucei GVR35 compared to S427",[12]; in vivo,~4 fold
same,MTD at 1 day,[3]; po,50 mg/kg
Cc1nn(C)c(C)c1N(C(F)F)S(=O)(=O)c1c(Cl)cc(CCCN2CCN3CCC[C@@H]3C2)cc1Cl [compound 53],Cli (mouse),[4],15 mL min^–1 g^–1
same,Cli,[4],15 mL/min/g
same,oral exposure in mouse,[1],no improvement to oral exposure
Cc1nn(C)c(C)c1NS(=O)(=O)c1ccc(-c2ccnc(N3CCNCC3)c2)cc1 [compound 55],EC50,[8]; Trypanosoma brucei,4 nM
same,EC50,[7],1400 nM
same,Kp,[13],0.1
Cc1nn(C)c(C)c1N(C(F)F)S(=O)(=O)c1c(Cl)cc(CCCOC[C@H]2CCCCN2)cc1Cl [compound 89],IC50,[14],7 nM
same,IC50,[15]; mean of two or more determinations,570 nM
same,S = IC50 HsNMT/EC50 T. brucei,[15]; selectivity,7
same,EC50,[8],85 nM
same,EC50,[16],5000 nM
